# Test results taken from patent US4115541A (priority 1975, dated 1978).
# How the values were obtained:
# [1] = Distribution of 99mTc-Sn-AEDP and 85Sr in rabbits, carrier effect of AEDP (Example 4); format: in vivo, rabbit; conditions: 2 Hrs.
# Method: Adult New Zealand albino rabbits having an average weight of 3.8 kg were utilized. Strontium-85 was employed as a standard for comparison. […] Each dosage is contained in a volume of 1 ml.
# The animals were sacrificed serially from 1 to 24 hours after injection and the activities in major organs were determined by counting multiple samples from each organ in a scintillation well counter (the technetium-99m counts were corrected for the Compton contributions from the strontium-85 activity in the technetium-99m energy window). Multiple samples were counted from the tibia, femur, spine and pelvic bones; the total activity in the skeleton was estimated by assuming the whole skeleton consisted of equal proportions by weight of tibia, spine, femur and pelvis and that the skeletal mass was 10% of the body weight. The red marrow was sampled from the femur and the total marrow was assumed to be 2.2% of the total body weight. Similarly, blood volume was assumed to be 7% and the skeletal muscle 43% of the body weight. The whole liver and both kidneys were weighed and multiple samples from each were counted to measure the total activity in each organ.
# In another series of experiments carried out as described in Example 2, the distribution of technetium 99m from its 99m-technetium-tin-methylene diphosphonate complex was determined in albino rabbits, again in comparison with strontium-85.
# The distribution of technetium 99m from its 99m technetium-tin-1-amino-ethane-1,1-diphosphonate complex was determined as in Example 3 and compared with the distribution of strontium-85.
# [2] = physical; cited from earlier work
molecule,measurement,setting,value
"99m technetium-tin-1-amino-ethane-1,1-diphosphonate complex [^99m Tc-Sn-AEDP]","Blood, % Dose in Whole Organ",[1]; AEDP 0.01 mg/kg,1.18 % Dose
same,"Blood, % dose/1% body weight",[1]; AEDP 0.01 mg/kg,0.168 % Dose/1% Body weight
same,"Bone Ave, % Dose/1% Body weight",[1]; AEDP 0.01 mg/kg,7.60 % Dose/1% Body weight
same,"Femur, % dose/1% body weight",[1]; AEDP 0.01 mg/kg,7.54 % Dose/1% Body weight
same,"Kidneys, % Dose in Whole Organ",[1]; AEDP 0.01 mg/kg,1.59 % Dose
same,"Kidneys, % dose/1% body weight",[1]; AEDP 0.01 mg/kg,2.72 % Dose/1% Body weight
same,"Liver, % Dose in Whole Organ",[1]; AEDP 0.01 mg/kg,1.69 % Dose
same,"Liver, % dose/1% body weight",[1]; AEDP 0.01 mg/kg,0.617 % Dose/1% Body weight
same,"Marrow, % Dose in Whole Organ",[1]; AEDP 0.01 mg/kg,0.657 % Dose
same,"Marrow, % dose/1% body weight",[1]; AEDP 0.01 mg/kg,0.300 % Dose/1% Body weight
same,"Muscle, % Dose in Whole Organ",[1]; AEDP 0.01 mg/kg,0.988 % Dose
same,"Muscle, % dose/1% body weight",[1]; AEDP 0.01 mg/kg,0.037 % Dose/1% Body weight
same,"Pelvis, % dose/1% body weight",[1]; AEDP 0.01 mg/kg,8.53 % Dose/1% Body weight
same,"Ratio of 99mTc/85Sr, Ave Bone",[1]; AEDP 0.01 mg/kg,0.735
same,"Ratio of 99mTc/85Sr, Blood",[1]; AEDP 0.01 mg/kg,0.406
same,"Ratio of 99mTc/85Sr, Femur",[1]; AEDP 0.01 mg/kg,0.720
same,"Ratio of 99mTc/85Sr, Kidney",[1]; AEDP 0.01 mg/kg,4.99
same,"Ratio of 99mTc/85Sr, Liver",[1]; AEDP 0.01 mg/kg,3.00
same,"Ratio of 99mTc/85Sr, Marrow",[1]; AEDP 0.01 mg/kg,1.27
same,"Ratio of 99mTc/85Sr, Muscle",[1]; AEDP 0.01 mg/kg,0.338
same,"Ratio of 99mTc/85Sr, Pelvis",[1]; AEDP 0.01 mg/kg,0.794
same,"Ratio of 99mTc/85Sr, Spine",[1]; AEDP 0.01 mg/kg,0.689
same,"Ratio of 99mTc/85Sr, Tibia",[1]; AEDP 0.01 mg/kg,0.710
same,"Spine, % dose/1% body weight",[1]; AEDP 0.01 mg/kg,6.20 % Dose/1% Body weight
same,Tc/Sr ratio (Table 4),[1]; AEDP 0.01 mg/kg,0.736
same,"Tibia, % dose/1% body weight",[1]; AEDP 0.01 mg/kg,8.13 % Dose/1% Body weight
same,"Urine, % Dose",[1]; AEDP 0.01 mg/kg,48.39 % Dose
same,"W. Femur, % Dose in Whole Organ",[1]; AEDP 0.01 mg/kg,2.34 % Dose
same,"W. Tibia, % Dose in Whole Organ",[1]; AEDP 0.01 mg/kg,1.96 % Dose
same,"Blood, % Dose in Whole Organ",[1]; AEDP 0.05 mg/kg,1.01 % Dose
same,"Blood, % dose/1% body weight",[1]; AEDP 0.05 mg/kg,0.144 % Dose/1% Body weight
same,"Bone Ave, % Dose/1% Body weight",[1]; AEDP 0.05 mg/kg,8.39 % Dose/1% Body weight
same,"Femur, % dose/1% body weight",[1]; AEDP 0.05 mg/kg,8.63 % Dose/1% Body weight
same,"Kidneys, % Dose in Whole Organ",[1]; AEDP 0.05 mg/kg,1.13 % Dose
same,"Kidneys, % dose/1% body weight",[1]; AEDP 0.05 mg/kg,1.83 % Dose/1% Body weight
same,"Liver, % Dose in Whole Organ",[1]; AEDP 0.05 mg/kg,0.806 % Dose
same,"Liver, % dose/1% body weight",[1]; AEDP 0.05 mg/kg,0.176 % Dose/1% Body weight
same,"Marrow, % Dose in Whole Organ",[1]; AEDP 0.05 mg/kg,0.549 % Dose
same,"Marrow, % dose/1% body weight",[1]; AEDP 0.05 mg/kg,0.250 % Dose/1% Body weight
same,"Muscle, % Dose in Whole Organ",[1]; AEDP 0.05 mg/kg,1.20 % Dose
same,"Muscle, % dose/1% body weight",[1]; AEDP 0.05 mg/kg,0.028 % Dose/1% Body weight
same,"Pelvis, % dose/1% body weight",[1]; AEDP 0.05 mg/kg,7.82 % Dose/1% Body weight
same,"Ratio of 99mTc/85Sr, Ave Bone",[1]; AEDP 0.05 mg/kg,0.683
same,"Ratio of 99mTc/85Sr, Blood",[1]; AEDP 0.05 mg/kg,0.409
same,"Ratio of 99mTc/85Sr, Femur",[1]; AEDP 0.05 mg/kg,0.687
same,"Ratio of 99mTc/85Sr, Kidney",[1]; AEDP 0.05 mg/kg,3.30
same,"Ratio of 99mTc/85Sr, Liver",[1]; AEDP 0.05 mg/kg,1.32
same,"Ratio of 99mTc/85Sr, Marrow",[1]; AEDP 0.05 mg/kg,1.18
same,"Ratio of 99mTc/85Sr, Muscle",[1]; AEDP 0.05 mg/kg,0.236
same,"Ratio of 99mTc/85Sr, Pelvis",[1]; AEDP 0.05 mg/kg,0.684
same,"Ratio of 99mTc/85Sr, Spine",[1]; AEDP 0.05 mg/kg,0.675
same,"Ratio of 99mTc/85Sr, Tibia",[1]; AEDP 0.05 mg/kg,0.681
same,"Spine, % dose/1% body weight",[1]; AEDP 0.05 mg/kg,7.80 % Dose/1% Body weight
same,Tc/Sr ratio (Table 4),[1]; AEDP 0.05 mg/kg,0.680
same,"Tibia, % dose/1% body weight",[1]; AEDP 0.05 mg/kg,9.30 % Dose/1% Body weight
same,"Urine, % Dose",[1]; AEDP 0.05 mg/kg,44.21 % Dose
same,"W. Femur, % Dose in Whole Organ",[1]; AEDP 0.05 mg/kg,2.41 % Dose
same,"W. Tibia, % Dose in Whole Organ",[1]; AEDP 0.05 mg/kg,2.14 % Dose
same,"Blood, % Dose in Whole Organ",[1]; AEDP 0.1 mg/kg,0.96 % Dose
same,"Blood, % dose/1% body weight",[1]; AEDP 0.1 mg/kg,0.137 % Dose/1% Body weight
same,"Bone Ave, % Dose/1% Body weight",[1]; AEDP 0.1 mg/kg,7.51 % Dose/1% Body weight
same,"Femur, % dose/1% body weight",[1]; AEDP 0.1 mg/kg,7.93 % Dose/1% Body weight
same,"Kidneys, % Dose in Whole Organ",[1]; AEDP 0.1 mg/kg,0.913 % Dose
same,"Kidneys, % dose/1% body weight",[1]; AEDP 0.1 mg/kg,1.28 % Dose/1% Body weight
same,"Liver, % Dose in Whole Organ",[1]; AEDP 0.1 mg/kg,0.309 % Dose
same,"Liver, % dose/1% body weight",[1]; AEDP 0.1 mg/kg,0.083 % Dose/1% Body weight
same,"Marrow, % Dose in Whole Organ",[1]; AEDP 0.1 mg/kg,0.211 % Dose
same,"Marrow, % dose/1% body weight",[1]; AEDP 0.1 mg/kg,0.096 % Dose/1% Body weight
same,"Muscle, % Dose in Whole Organ",[1]; AEDP 0.1 mg/kg,1.46 % Dose
same,"Muscle, % dose/1% body weight",[1]; AEDP 0.1 mg/kg,0.034 % Dose/1% Body weight
same,"Pelvis, % dose/1% body weight",[1]; AEDP 0.1 mg/kg,6.24 % Dose/1% Body weight
same,"Ratio of 99mTc/85Sr, Ave Bone",[1]; AEDP 0.1 mg/kg,0.716
same,"Ratio of 99mTc/85Sr, Blood",[1]; AEDP 0.1 mg/kg,0.409
same,"Ratio of 99mTc/85Sr, Femur",[1]; AEDP 0.1 mg/kg,0.714
same,"Ratio of 99mTc/85Sr, Kidney",[1]; AEDP 0.1 mg/kg,2.94
same,"Ratio of 99mTc/85Sr, Liver",[1]; AEDP 0.1 mg/kg,0.490
same,"Ratio of 99mTc/85Sr, Marrow",[1]; AEDP 0.1 mg/kg,0.621
same,"Ratio of 99mTc/85Sr, Muscle",[1]; AEDP 0.1 mg/kg,0.205
same,"Ratio of 99mTc/85Sr, Pelvis",[1]; AEDP 0.1 mg/kg,0.725
same,"Ratio of 99mTc/85Sr, Spine",[1]; AEDP 0.1 mg/kg,0.705
same,"Ratio of 99mTc/85Sr, Tibia",[1]; AEDP 0.1 mg/kg,0.721
same,"Spine, % dose/1% body weight",[1]; AEDP 0.1 mg/kg,7.36 % Dose/1% Body weight
same,Tc/Sr ratio (Table 4),[1]; AEDP 0.1 mg/kg,0.717
same,"Tibia, % dose/1% body weight",[1]; AEDP 0.1 mg/kg,8.50 % Dose/1% Body weight
same,"Urine, % Dose",[1]; AEDP 0.1 mg/kg,38.8 % Dose
same,"W. Femur, % Dose in Whole Organ",[1]; AEDP 0.1 mg/kg,2.38 % Dose
same,"W. Tibia, % Dose in Whole Organ",[1]; AEDP 0.1 mg/kg,2.18 % Dose
same,"Blood, % Dose in Whole Organ",[1]; AEDP 0.5 mg/kg,1.38 % Dose
same,"Blood, % dose/1% body weight",[1]; AEDP 0.5 mg/kg,0.197 % Dose/1% Body weight
same,"Bone Ave, % Dose/1% Body weight",[1]; AEDP 0.5 mg/kg,6.96 % Dose/1% Body weight
same,"Femur, % dose/1% body weight",[1]; AEDP 0.5 mg/kg,6.59 % Dose/1% Body weight
same,"Kidneys, % Dose in Whole Organ",[1]; AEDP 0.5 mg/kg,1.11 % Dose
same,"Kidneys, % dose/1% body weight",[1]; AEDP 0.5 mg/kg,2.11 % Dose/1% Body weight
same,"Liver, % Dose in Whole Organ",[1]; AEDP 0.5 mg/kg,0.216 % Dose
same,"Liver, % dose/1% body weight",[1]; AEDP 0.5 mg/kg,0.079 % Dose/1% Body weight
same,"Marrow, % Dose in Whole Organ",[1]; AEDP 0.5 mg/kg,0.23 % Dose
same,"Marrow, % dose/1% body weight",[1]; AEDP 0.5 mg/kg,0.104 % Dose/1% Body weight
same,"Muscle, % Dose in Whole Organ",[1]; AEDP 0.5 mg/kg,0.883 % Dose
same,"Muscle, % dose/1% body weight",[1]; AEDP 0.5 mg/kg,0.021 % Dose/1% Body weight
same,"Pelvis, % dose/1% body weight",[1]; AEDP 0.5 mg/kg,7.93 % Dose/1% Body weight
same,"Ratio of 99mTc/85Sr, Ave Bone",[1]; AEDP 0.5 mg/kg,0.644
same,"Ratio of 99mTc/85Sr, Blood",[1]; AEDP 0.5 mg/kg,0.280
same,"Ratio of 99mTc/85Sr, Femur",[1]; AEDP 0.5 mg/kg,0.628
same,"Ratio of 99mTc/85Sr, Kidney",[1]; AEDP 0.5 mg/kg,2.47
same,"Ratio of 99mTc/85Sr, Liver",[1]; AEDP 0.5 mg/kg,0.459
same,"Ratio of 99mTc/85Sr, Marrow",[1]; AEDP 0.5 mg/kg,0.500
same,"Ratio of 99mTc/85Sr, Muscle",[1]; AEDP 0.5 mg/kg,0.140
same,"Ratio of 99mTc/85Sr, Pelvis",[1]; AEDP 0.5 mg/kg,0.692
same,"Ratio of 99mTc/85Sr, Spine",[1]; AEDP 0.5 mg/kg,0.614
same,"Ratio of 99mTc/85Sr, Tibia",[1]; AEDP 0.5 mg/kg,0.632
same,"Spine, % dose/1% body weight",[1]; AEDP 0.5 mg/kg,6.05 % Dose/1% Body weight
same,Tc/Sr ratio (Table 4),[1]; AEDP 0.5 mg/kg,0.645
same,"Tibia, % dose/1% body weight",[1]; AEDP 0.5 mg/kg,7.27 % Dose/1% Body weight
same,"Urine, % Dose",[1]; AEDP 0.5 mg/kg,48.85 % Dose
same,"W. Femur, % Dose in Whole Organ",[1]; AEDP 0.5 mg/kg,1.74 % Dose
same,"W. Tibia, % Dose in Whole Organ",[1]; AEDP 0.5 mg/kg,1.55 % Dose
[18FH] [fluorine-18],half-life (radionuclide),[2],1.83 h
